Measurements reported in patent publication US20070004653A1, “Stable lyophilized anthracycline glycosides” (priority 2005, published 2007).
Read-outs that look alike come from different tables or passages of the source.

Experiments:
[1] = Purification of Doxorubicin HCl: solution at pH 3.5 warmed to 60° C., aglycone; assay type: physicochemical
Experimental: Doxorubicin hydrochloride (500 mg) was dissolved in water (10 ml) at room temperature. A small amount of 0.1 N hydrochloric acid was added to lower the pH from 5.4 to 3.5. […]

[2] = Stability tests of Doxorubicin HCl solutions at room temperature (aglycone); assay type: physicochemical
Experimental: Doxorubicin hydrochloride (500 mg) was dissolved in 0.001 N hydrochloric acid (20 ml) at room temperature. The pH of this solution was 3.25.
Doxorubicin hydrochloride (500 mg) was dissolved in 0.1 N acetic acid (20 ml) at room temperature. The pH of this solution was 2.62. After 1 hour, ammonium acetate (4% molar amount with respect to the molar amount of the doxorubicin hydrochloride) was added to the solution and the solution kept at room temperature. The pH rose from 2.62 to 3.02. The results in table 46 show the stability data of this solution at room temperature.
Doxorubicin hydrochloride (500 mg) was dissolved in 0.05 M formic acid (20 ml) at room temperature. The pH of this solution was 2.52. After 1 hour, ammonium acetate (4% molar amount in respect of the molar amount of doxorubicin hydrochloride) was added and the solution kept at room temperature. The pH rose from 2.52 to 2.71.

[3] = Stability test of stabilized lyophilized Doxorubicin HCl (IRA-67 acetate resin); assay type: physicochemical
Experimental: Starting product was doxorubicin hydrochloride, 2.5% w/v in water. The pH of this solution was corrected to 4.6-4.8 with IN HCl. Then 1.5% molar amount of AMBERLITE® IRA-67 (1.6 M) acetate with respect to doxorubicin hydrochloride was added. After 2 hr of slurrying, the solution was filtered through a 0.4 micron membrane then it was, frozen and lyophilized.

[4] = Preparation of stable lyophilized anthracycline glycoside hydrochlorides: aglycone and dimer in the lyophilized product; assay type: physicochemical; conditions: frozen and lyophilized
Experimental: Idarubicin hydrochloride (500 mg) was dissolved in water (50 ml) and acetic acid and ammonium acetate (both 1.5% molar amount with respect to the molar amount of idarubicin hydrochloride) were added. The solution was frozen and lyophilized.
Idarubicin hydrochloride (500 mg) was dissolved in water (50 ml) and acetic acid and ammonium acetate (both 1.5% molar amount with respect to the molar amount of idarubicin hydrochloride) were added. Charcoal was then added (100 g) and the solution was stirred for two hours. After that, the suspension was filtered through 0.4 micron membrane and then the solution was frozen and lyophilized.
Doxorubicin hydrochloride (500 mg) was dissolved in water (20 ml) and the pH corrected to 3.5 with acetic acid at room temperature. The solution was then warmed to 60° C. for 2 hours and then ammonium acetate (1.5% molar amount with respect to the molar amount of doxorubicin hydrochloride) was added. Then the solution was quickly frozen and lyophilized.
Epirubicin hydrochloride (1550 mg) was dissolved in water (100 ml) and the pH corrected to 3.2-3.8 with hydrochloric acid at room temperature. The solution was then warmed to 60° C.-65° C. for 1 hours and then the solution was cooled to 50-60° C. At the same time, the pH was corrected to 4.5-5.0 with sodium hydroxide. Then the solution was quickly frozen and lyophilized.
Idarubicin hydrochloride (5.0 g) was dissolved in water (500 ml). Then 58 microlitres of AMBERLITE® IRA-67 (1.6M) acetate (meaning 1.0% molar amount with respect to the molar amount of idarubicin hydrochloride) and 4.5 mg of acetic acid (meaning 0.8% molar amount with respect to the molar amount of idarubicin hydrochloride) were added. The suspension was slurried for two hours, then filtered, frozen and lyophilized.
Doxorubicin hydrochloride (5.0 g) was dissolved in water (200 ml) and the pH corrected to 4.6-4.8 with IN hydrochloric acid at room temperature. Then 80 microlitres of AMBERLITE® IRA-67 (1.6M) acetate (meaning 1.5% molar amount with respect to the molar amount of doxorubicin hydrochloride) was added. The solution was then filtered, frozen and lyophilized.
Epirubicin hydrochloride (1550 mg) was dissolved in water (100 ml) and the pH corrected to 3.2-3.8 with hydrochloric acid at room temperature. The solution was warmed to 60° C.-65° C. for 1 hour and then the solution was cooled to 50-60° C. At the same time, the pH was corrected to 4.5-5.0 with AMBERLITE® IRA-67 free base. Then the solution was quickly filtered, frozen, and lyophilized.

[5] = cited from earlier work

COc1cccc2c1C(=O)c1c(O)c3c(c(O)c1C2=O)C[C@@](O)(C(=O)CO)C[C@@H]3O[C@H]1C[C@@H](N)[C@H](O)C(C)O1.Cl (stereo partly drawn) [Doxorubicin HCl, Doxorubicin hydrochloride]
% aglycone ([1]; 500 mg in water (10 ml), pH lowered from 5.4 to 3.5 with hydrochloric acid, 1 hr, 60° C.): 0.11%
% aglycone ([1]; 500 mg in water (10 ml), pH lowered from 5.4 to 3.5 with hydrochloric acid, 2 hr, 60° C.): 0.31%
% aglycone ([1]; pH 3.5 solution after two hours at 60° C., cooled, 1 hr, 20° C.): 0.21%
% aglycone ([1]; pH 3.5 solution after two hours at 60° C., cooled, 3 hr, 20° C.): 0.22%
% aglycone ([2]; 0.05 M formic acid, after addition of NH4OAc (4% molar), pH 2.71, 0.5 hr - 20° C.): 0.13%
% aglycone ([2]; 0.05 M formic acid, after addition of NH4OAc (4% molar), pH 2.71, 1.0 hr - 20° C.): 0.11%
% aglycone ([2]; 0.05 M formic acid, after addition of NH4OAc (4% molar), pH 2.71, 1.5 hr - 20° C.): 0.12%
% aglycone ([2]; 0.05 M formic acid, after addition of NH4OAc (4% molar), pH 2.71, 2.0 hr - 20° C.): 0.10%
% aglycone ([2]; 0.05 M formic acid, after addition of NH4OAc (4% molar), pH 2.71, 4.0 hr - 20° C.): 0.14%
% aglycone in doxorubicin HCl ([2]; 0.1 N acetic acid, after addition of NH4OAc (4% molar), pH 3.02, 0.5 hr - 20° C.): 0.20%
% aglycone in doxorubicin HCl ([2]; 0.1 N acetic acid, after addition of NH4OAc (4% molar), pH 3.02, 1.0 hr - 20° C.): 0.13%
% aglycone in doxorubicin HCl ([2]; 0.1 N acetic acid, after addition of NH4OAc (4% molar), pH 3.02, 1.5 hr - 20° C.): 0.12%
% aglycone in doxorubicin HCl ([2]; 0.1 N acetic acid, after addition of NH4OAc (4% molar), pH 3.02, 2.0 hr - 20° C.): 0.35%
% aglycone in doxorubicin HCl ([2]; 0.1 N acetic acid, after addition of NH4OAc (4% molar), pH 3.02, 3.0 hr - 20° C.): 0.12%
% aglycone in doxorubicin HCl ([2]; 0.1 N acetic acid, after addition of NH4OAc (4% molar), pH 3.02, 6.0 hr - 20° C.): 0.16%
% aglycone ([2]; 500 mg in 0.001 N hydrochloric acid (20 ml), pH 3.25, 20° C., 1.0 hr): 0.24%
% aglycone ([2]; 500 mg in 0.001 N hydrochloric acid (20 ml), pH 3.25, 20° C., 3.0 hr): 0.21%
% aglycone ([2]; 500 mg in 0.001 N hydrochloric acid (20 ml), pH 3.25, 20° C., 5.0 hr): 0.26%
% aglycone ([2]; 500 mg in 0.001 N hydrochloric acid (20 ml), pH 3.25, 20° C., 22.0 hr): 0.25%
% aglycone ([2]; 500 mg in 0.05 M formic acid (20 ml), 1.0 hr - 20° C., pH 2.52, before addition of NH4OAc): 0.20%
% aglycone in doxorubicin HCl ([2]; 500 mg in 0.1 N acetic acid (20 ml), 1.0 hr - 20° C., pH 2.62, before addition of NH4OAc): 0.17%
% aglycone ([3]; lyophilized product obtained (IRA-67 acetate treatment)): 0.09%
% aglycone ([3]; solution after treatment with 1.5% mol of IRA-67 acetate, slurried 2 hr, filtered, loaded into lyophilizer): 0.07%
% aglycone ([3]; starting solid doxorubicin hydrochloride, 2.5% w/v in water, after correcting pH (4.75), before resin treatment): 0.07%
aglycone contained in lyophilized product ([4]; Example 40: pH 3.5 with acetic acid, 60° C. for 2 hours, ammonium acetate 1.5% molar): 0.12%
aglycone contained in lyophilized product ([4]; Example 43: pH 4.6-4.8, AMBERLITE IRA-67 acetate 1.5% molar, filtered): 0.10%

COc1cccc2c1C(=O)c1c(O)c3c(c(O)c1C2=O)C[C@@](O)(C(=O)CO)C[C@@H]3O[C@H]1C[C@@H](N)[C@H](O)C(C)O1 (stereo partly drawn) [Doxorubicin]
solubility ([5]; in acetone, benzene, chloroform and ethyl ether): practically insoluble
solubility ([5]; in water, methanol): soluble

COc1cccc2c1C(=O)c1c(O)c3c(c(O)c1C2=O)C[C@@](O)(C(=O)CO)C[C@@H]3O[C@H]1C[C@@H](N)[C@@H](O)C(C)O1 (stereo partly drawn) [Epirubicin]
solubility ([5]; in acetone, chloroform, and methylene chloride): practically insoluble
solubility ([5]; in water, methanol and ethyl alcohol, at a temperature of 50° C.): soluble
